According to patent US6495577B2, “Pesticidal composition” (Aventis CropScience GmbH, priority 2000, dated 2002):

Tested on: Trialeurodes vaporariorum
Experiment: Mortality of whitefly nymphs on sprayed French bean plants (greenhouse)
Type: in vivo
Conditions: 240 h, 10 days after application
Text: The invention is illustrated in the following Example which describe experiments in which a synergistic effect was observed. The desired concentration of the active ingredients was achieved by diluting, with water, the commercially available 25% by volume emulsifiable concentrate of deltamethrin and 20% by weight water soluble powder of acetamiprid, each of which contained conventional surfactants.
Two plants of two week old French beans (Phaseolus vulgaris) were infested with adult whitefly (Trialeurodes vaporariorum) for oviposition in a closed chamber. After 48 hours, the adults were blown off the plants so that only the eggs stayed at the surface of the leaves. The plants were placed in a greenhouse for 7 days to complete the development of the eggs to the larval stage L 1/2. The plants were then sprayed with the individual compounds and mixtures of the two, by hand with a spray gun, until complete coverage of the plant surfaces with the spray liquid was obtained. The plants were then placed in the greenhouse for a further 10 days. Two replicates of each test was carried. The mortality of the nymphs of Trialeurodes vaporadorum was estimated 10 days after application and the average of the two replicates calculated.
To indicate the existence of synergism between the active components, the results were treated in the manner described by Colby S. R., “Calculating Synergistic and Antagonistic Responses of Herbicide Combinations,” Weeds, 1967, 15, 20-22. In this method, the “expected” percent control, E, of the combination is given by the equation: [formula]
The LC50 in ppm of the mixtures was calculated and compared with the expected LC50 from the expected mortalities according to Colby.

| Structure (SMILES) | mortality at 0.01 ppm (deltamethrin 0,01 ppm alone) [%] | mortality at 0.1 ppm (deltamethrin 0,1 ppm alone) [%] | mortality at 0.02 ppm (deltamethrin 0,02 ppm alone) [%] | mortality at 0.2 ppm (deltamethrin 0,2 ppm alone) [%] | mortality at 0.06 ppm (deltamethrin 0,06 ppm alone) [%] | mortality at 0.6 ppm (deltamethrin 0,6 ppm alone) [%] | mortality at 0.33 ppm (deltamethrin 0,33 ppm alone) [%] | mortality at 1 ppm (deltamethrin 1 ppm alone) [%] | mortality at 0.006 ppm (deltamethrin 0,006 ppm alone) [%] | mortality at 0.033 ppm (deltamethrin 0,033 ppm alone) [%] | mortality at 0.1 ppm (acetamiprid 0,1 ppm alone) [%] | mortality at 0.03 ppm (acetamiprid 0,03 ppm alone) [%] | mortality at 0.3 ppm (acetamiprid 0,3 ppm alone) [%] | mortality at 1 ppm (acetamiprid 1 ppm alone) [%] | mortality at 3 ppm (acetamiprid 3 ppm alone) [%] |
| --- | --- | --- | --- | --- | --- | --- | --- | --- | --- | --- | --- | --- | --- | --- | --- |
| CC1(C)[C@H](C(=O)O[C@H](C#N)c2cccc(Oc3ccccc3)c2)[C@@H]1C=C(Br)Br [deltamethrin, (S)-α-cyano-3-phenoxybenzyl (1R,3R)-3-(2,2-dibromvinyl)-2,2-dimethylcyclopropanecarboxylate] | 0.75 | 25 | 2.5 | 36.2 | 15 | 47.5 | 47.5 | 73.8 | 0 | 8.75 |  |  |  |  |  |
| C/C(=N\C#N)N(C)Cc1ccc(Cl)nc1 [acetamiprid, E-N^1-[(6-chloro-3-pyridylmethyl)]-N^2-cyano-N^1-methylacetamidine] |  |  |  |  |  |  |  |  |  |  | 1.25 | 0 | 7.5 | 23.8 | 56.2 |
